Read-outs that look alike come from different tables or passages of the source. Blank lines part the entries; values can stand above or below the compound they belong to.
Tested on: PMA-differentiated THP-1 cells
Assay: IL-1β production in PMA-differentiated THP-1 cells stimulated with gramicidin (hTHP-1 assay containing 2% fetal bovine serum; Procedures 1 and 2)
Format: cell-based, human
Details: 2% fetal bovine serum
Method in brief: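 IL-1β release from PMA-differentiated THP-1 macrophage-like cells was triggered by 5 μM gramicidin for 2 h after 1 h compound exposure, then measured by HTRF.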

[1] = Homo sapiens, THP-1, Table B1, class symbols, read-out: Average IC50 of compounds in hTHP-1 assay: hTHP-1 IC50
[2] = Table B2, class symbols, read-out: hTHP-1 IC50
[3] = Homo sapiens, THP-1, Table B2, class symbols, read-out: hTHP-1 IC50
[4] = Table B4, class symbols, read-out: hTHP-1 IC50
[5] = Table B1, class symbols, read-out: Average IC50 of compounds in hTHP-1 assay: hTHP-1 IC50
[6] = Homo sapiens, THP-1, Table B1, numeric bounds, read-out: Average IC50 of compounds in hTHP-1 assay: hTHP-1 IC50

IC50 [1]: 40 to 200 nM
Structure (SMILES): CC(C)(O)c1cc(F)c(S(N)(=O)=NC(=O)Nc2c3c(nc4c2CCC4(C)C)CCC3)s1 (stereo not drawn) [Compound 102, N′-((3,3-dimethyl-1,2,3,5,6,7-hexahydrodicyclopenta[b,e]pyridin-8-yl)carbamoyl)-3-fluoro-5-(2-hydroxypropan-2-yl)thiophene-2-sulfonimidamide]

IC50 [1]: 200 to 1000 nM
Structure (SMILES): CC(C)c1csc(S(N)(=O)=NC(=O)Nc2c3c(nc4c2CCC4)CCC3)c1 (stereo not drawn) [Compound 173, N′-((1,2,3,5,6,7-hexahydrodicyclopenta[b,e]pyridin-8-yl)carbamoyl)-4-isopropylthiophene-2-sulfonimidamide]

IC50 [2]: 200 to 1000 nM
Structure (SMILES): CC(C)c1c(C2CC2)nc2c(c1NC(=O)N=S(N)(=O)c1cc(C(C)(C)O)cs1)CCC2 (single isomer, unassigned) [Compound 667b, (R) or (S)-N′-((2-cyclopropyl-3-isopropyl-6,7-dihydro-5H-cyclopenta[b]pyridin-4-yl)carbamoyl)-4-(2-hydroxypropan-2-yl)thiophene-2-sulfonimidamide]

IC50 [2]: 40 to 200 nM
Structure (SMILES): CC(C)(O)c1sc(S(N)(=O)=NC(=O)Nc2c3c(nc4c2CCC42CC2)CCC3)cc1F (single isomer, unassigned) [Compound 614a, (R) or (S)-4-Fluoro-5-(2-hydroxypropan-2-yl)-N′-((1′,5′,6′,7′-tetrahydro-2′H-spiro[cyclopropane-1,3′-dicyclopenta[b,e]pyridin]-8′-yl)carbamoyl) thiophene-2-sulfonimidamide]

IC50 (Homo sapiens, THP-1, Table B2, numeric bounds, read-out: hTHP-1 IC50): > 30000 nM
Structure (SMILES): CC1(C)CCc2c1nc1c(c2NC(=O)N=S(N)(=O)c2cnn3c2OCCC3)CCC1 (single isomer, unassigned) [Compound 304a, (S) or (R)-N′-((3,3-dimethyl-1,2,3,5,6,7-hexahydrodicyclopenta [b,e]pyridin-8-yl)carbamoyl)-6,7-dihydro-5H-pyrazolo[5,1-b][1,3] oxazine-3-sulfonimidamide]

IC50 (Homo sapiens, THP-1, Table B4, class symbols, read-out: hTHP-1 IC50): 200 to 1000 nM
Structure (SMILES): C[C@@H]1CCc2c1nc1c(c2NC(=O)N=S(N)(=O)c2nn(-c3ccccc3)cc2F)CCC1 (stereo partly drawn) [Example 748, 4-Fluoro-N′-(((R)-3-methyl-1,2,3,5,6,7-hexahydrodicyclopenta [b, e]pyridin-8-yl)carbamoyl)-1-phenyl-1H-pyrazole-3-sulfonimidamide]

IC50 [3]: 1000 to 5000 nM
Structure (SMILES): CC(C)(O)c1cccc(S(N)(=O)=NC(=O)Nc2c3c(nc4c2CCC4)CCC3)c1 (single isomer, unassigned) [Compound 625b, (R) or (S)-N′-((1,2,3,5,6,7-hexahydrodicyclopenta [b,e]pyridin-8-yl)carbamoyl)-3-(2-hydroxypropan-2-yl)benzene-sulfonimidamide]

IC50 [4]: 1000 to 5000 nM
Structure (SMILES): CCn1cc(F)c(S(N)(=O)=NC(=O)Nc2c3c(nc(C(F)(F)F)c2-c2ccc(F)cc2)CCC3)n1 (single isomer, unassigned) [Example 788, (S) or (R)-1-ethyl-4-fluoro-N′-((3-(4-fluorophenyl)-2-(trifluoromethyl)-6,7-dihydro-5H-cyclopenta[b]pyridin-4-yl)carbamoyl)-1H-pyrazole-3-sulfonimidamide]

IC50 [5]: 5000 to 30000 nM
Structure (SMILES): CC1CCc2c1nc1c(c2NC(=O)N=S(N)(=O)c2cnc(C(C)(C)O)s2)CCC1 (single isomer, unassigned) [Compound 162aa, (S,S) or (S,R)-2-(2-hydroxypropan-2-yl)-N′-((3-methyl-1,2,3,5,6,7-hexahydrodicyclo-penta[b,e]pyridin-8-yl)carbamoyl)thiazole-5-sulfonimidamide]

IC50 [5]: 5000 to 30000 nM
Structure (SMILES): CC1CCc2c1nc1c(c2NC(=O)N=S(N)(=O)c2ccn(C(F)F)n2)CCC1 (single isomer, unassigned) [Compound 184c, (R,S) or (R,R)-1-(difluoro-methyl)-N′-((3-methyl-1,2,3,5,6,7-hexahydro-dicyclopenta[b,e]pyridin-8-yl)carbamoyl)-1H-pyrazole-3-sulfonimidamide]

IC50 [2]: 1000 to 5000 nM
Structure (SMILES): Cc1c(C(C)C)nc2c(c1NC(=O)N=S(N)(=O)c1cc(C(C)(C)O)cs1)CCC2 (single isomer, unassigned) [Compound 681a, (S) or (R)-4-(2-Hydroxypropan-2-yl)-N′-((2-isopropyl-3-methyl-6,7-dihydro-5H-cyclopenta[b]pyridin-4-yl)carbamoyl) thiophene-2-sulfonimidamide]

IC50 [3]: 1000 to 5000 nM
Structure (SMILES): CC(C)n1cc(Cl)c(S(N)(=O)=NC(=O)Nc2c3c(nc4c2CCC4)CCC3)n1 (stereo not drawn) [Compound 694, 4-Chloro-N′-((1,2,3,5,6,7-hexahydrodicyclopenta[b,e]pyridin-8-yl)carbamoyl)-1-isopropyl-1H-pyrazole-3-sulfonimidamide]

IC50 [1]: 1000 to 5000 nM
Structure (SMILES): CC(C)(O)c1ccc(S(N)(=O)=NC(=O)Nc2c3c(nc4c2CCC4)CCC3)cn1 (single isomer, unassigned) [Compound 156b, (R) or (S)-N′-((1,2,3,5,6,7-hexahydrodicyclo-penta[b,e]pyridin-8-yl)carbamoyl)-6-(2-hydroxypropan-2-yl)pyridine-3-sulfonimidamide]

IC50 [6]: > 30000 nM
Structure (SMILES): CC(C)(O)c1ncc(S(N)(=O)=NC(=O)Nc2c3c(nc4c2CCC4F)CCC3)s1 (single isomer, unassigned) [Compound 183b, (S,S) or (S,R)-N′-((3-fluoro-1,2,3,5,6,7-hexahydrodicyclo-penta[b,e]pyridin-8-yl)carbamoyl)-2-(2-hydroxypropan-2-yl)thiazole-5-sulfonimidamide]

IC50 [3]: 5000 to 30000 nM
Structure (SMILES): CC(O)c1nc(C(C)(C)O)sc1S(=N)(=O)NC(=O)Nc1c2c(nc3c1CCC3)CCC2 (single isomer, unassigned) [Compound 643a, (R, R/S) or (S, R/S)-N-((1,2,3,5,6,7-hexahydrodicyclopenta [b,e]pyridin-8-yl)carbamoyl)-4-(1-hydroxyethyl)-2-(2-hydroxypropan-2-yl) thiazole-5-sulfonimidamide]

IC50 [5]: 40 to 200 nM
Structure (SMILES): CC1CCc2c1nc1c(c2NC(=O)N=S(N)(=O)c2cnc(C(C)(C)O)s2)CCC1 (stereo not drawn) [Compound 162, 2-(2-hydroxypropan-2-yl)-N′-((3-methyl-1,2,3,5,6,7-hexahydrodicyclopenta[b,e]pyridin-8-yl)carbamoyl)thiazole-5-sulfonimidamide]

IC50 [3]: 200 to 1000 nM
Structure (SMILES): CCn1ccc(S(N)(=O)=NC(=O)Nc2c3c(nc4c2CCC42CC2)CCC3)n1 (stereo not drawn) [Compound 604, 1-Ethyl-N′-((1′,5′,6′,7′-tetrahydro-2′H-spiro[cyclopropane-1,3′-dicyclopenta[b,e]pyridin]-8′-yl)carbamoyl)-1H-pyrazole-3-sulfonimidamide]

IC50 [5]: 5000 to 30000 nM
Structure (SMILES): CC1CCc2c1nc1c(c2NC(=O)N=S(N)(=O)c2cc(C(C)(C)O)cs2)CCC1 (single isomer, unassigned) [Compound 141bb, (S,R) or (S,S)-4-(2-hydroxypropan-2-yl)-N′-((3-methyl-1,2,3,5,6,7-hexahy-drodicyclopenta[b,e]pyridin-8-yl)carbamoyl)thiophene-2-sulfonimidamide]

IC50 [4]: 5000 to 30000 nM
Structure (SMILES): CC(C)n1cc(F)c(S(N)(=O)=NC(=O)Nc2c3c(nc4c2CCC4)CCC3)n1 (single isomer, unassigned) [Example 786, (S) or (R)-4-fluoro-N′-((1,2,3,5,6,7-hexahydrodicyclopenta [b,e]pyridin-8-yl)carbamoyl)-1-isopropyl-1H-pyrazole-3-sulfonimidamide]

IC50 (Table B1, numeric bounds, read-out: Average IC50 of compounds in hTHP-1 assay: hTHP-1 IC50): > 30000 nM
Structure (SMILES): CNS(=O)(=NC(=O)Nc1c2c(nc3c1CCC3)CCC2)c1ccc(CN(C)C)cc1 (single isomer, unassigned) [Compound 120b, (S) or (R)-4-((dimethylamino)methyl)-N′-((1,2,3,5,6,7-hexahydro-dicyclopenta[b,e]pryidin-8-yl)carbamoyl)-N-methylbenzene-sulfonimidamide]

IC50 [6]: > 30000 nM
Structure (SMILES): CCc1cc(NC(=O)N=S(N)(=O)c2cnc(C(C)(C)O)s2)c2c(n1)CCC2 (stereo not drawn) [Compound 137, N′-((2-ethyl-6,7-dihydro-5H-cyclopenta[b]pyridin-4-yl)carbamoyl)-2-(2-hydroxypropan-2-yl)thiazole-5-sulfonimidamide]

IC50 (Table B3, hTHP-1 assay, class symbols, read-out: IC50): 200 to 1000 nM
Structure (SMILES): CC(C)(O)c1cc(F)c(S(N)(=O)=NC(=O)Nc2c3c(nc(C(F)(F)F)c2C2CC2)CCC3)s1 (single isomer, unassigned) [Example 659, (R) or (S)-N′-((3-cyclopropyl-2-(trifluoromethyl)-6,7-dihydro-5H-cyclopenta[b]pyridin-4-yl)carbamoyl)-3-fluoro-5-(2-hydroxypropan-2-yl) thiophene-2-sulfonimidamide]

IC50 [2]: 5000 to 30000 nM
Structure (SMILES): Cc1cc(S(N)(=O)=NC(=O)Nc2c3c(nc4c2CCC4)CCC3)sc1C(C)(C)O (single isomer, unassigned) [Compound 692a, (S) or (R)-N′-((1,2,3,5,6,7-hexahydrodicyclopenta [b,e]pyridin-8-yl)carbamoyl)-5-(2-hydroxypropan-2-yl)-4-methylthiophene-2-sulfonimidamide]

IC50 (Homo sapiens, THP-1, Table B3, hTHP-1 assay, class symbols, read-out: IC50): 1000 to 5000 nM
Structure (SMILES): CCc1c(CC(F)(F)F)nc2c(c1NC(=O)N=S(N)(=O)c1sc(C(C)(C)O)cc1F)CCC2 (stereo not drawn) [Example 594, N′-((3-ethyl-2-(2,2,2-trifluoroethyl)-6,7-dihydro-5H-cyclopenta[b]pyridin-4-yl)carbamoyl)-3-fluoro-5-(2-hydroxypropan-2-yl)thiophene-2-sulfonimidamide]
